Source: ChEMBL document CHEMBL1201862, “PubChem BioAssay data set” (2004)
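Test compounds were applied to cells in 96-well plates for 48 hours at 5 doses. At the GI50, growth is halved.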 Activity calls are given as the source filed them. Cut-off read from the data, not from the text of the source: active = GI50 up to about 1.1 µM and inactive = higher.

How the values were obtained:
Assay in all cases: NCI-60 cell line screen, 48 h
SK-OV-3 = system: SK-OV-3
NCI/ADR-RES = system: NCI/ADR-RES
HT-29 = system: HT-29
U-251 = system: U-251
SNB-19 = system: SNB-19
COLO 205 = system: COLO 205
LOX IMVI = system: LOX IMVI
SW-620 = system: SW-620
NCI-H226 = system: NCI-H226
OVCAR-4 = system: OVCAR-4
SN12C = system: SN12C
UO-31 = system: UO-31
MDA-MB-231 = system: MDA-MB-231
KM12 = system: KM12
786-0 = system: 786-0
OVCAR-8 = system: OVCAR-8
HL-60 = system: HL-60
IGROV-1 = system: IGROV-1
NCI-H522 = system: NCI-H522
HCC 2998 = system: HCC 2998
EKVX = system: EKVX
TK-10 = system: TK-10
SF-539 = system: SF-539
CAKI-1 = system: CAKI-1
UACC-257 = system: UACC-257
PC-3 = system: PC-3
MDA-N = system: MDA-N
RXF 393 = system: RXF 393
T47D = system: T47D
A549 = system: A549
NCI-H460 = system: NCI-H460
HCT-116 = system: HCT-116
HOP-62 = system: HOP-62
Hs-578T = system: Hs-578T
M14 = system: M14
OVCAR-5 = system: OVCAR-5
MOLT-4 = system: MOLT-4
Malme-3M = system: Malme-3M
K562 = system: K562
HCT-15 = system: HCT-15
UACC-62 = system: UACC-62
ACHN = system: ACHN
SNB-75 = system: SNB-75
BT-549 = system: BT-549
SF-268 = system: SF-268
MCF7 = system: MCF7
SK-MEL-2 = system: SK-MEL-2
SK-MEL-5 = system: SK-MEL-5
NCI-H23 = system: NCI-H23
SF-295 = system: SF-295
RPMI-8226 = system: RPMI-8226
HOP-92 = system: HOP-92
MDA-MB-435 = system: MDA-MB-435
SK-MEL-28 = system: SK-MEL-28
SR = system: SR
DU-145 = system: DU-145
OVCAR-3 = system: OVCAR-3
A498 = system: A498
CCRF-CEM = system: CCRF-CEM

Structure (SMILES): COc1ccc2c(c1)N=C1CSC(c3c(Cl)cccc3[N+](=O)[O-])N1C2 (stereo not given)
- GI50 (SK-OV-3): > 100 µM (inactive)
- GI50 (NCI/ADR-RES): 34.5 µM (inactive)
- GI50 (HT-29): 38.2 µM (inactive)
- GI50 (U-251): 54.2 µM (inactive)
- GI50 (SNB-19): > 100 µM (inactive)
- GI50 (COLO 205): 24.9 µM (inactive)
- GI50 (LOX IMVI): 35.5 µM (inactive)
- GI50 (SW-620): 36.6 µM (inactive)
- GI50 (NCI-H226): 0.918 µM (active)
- GI50 (OVCAR-4): 56.6 µM (inactive)
- GI50 (SN12C): 53.7 µM (inactive)
- GI50 (UO-31): 30.8 µM (inactive)
- GI50 (MDA-MB-231): 33.3 µM (inactive)
- GI50 (KM12): 33.5 µM (inactive)
- GI50 (786-0): 51.5 µM (inactive)
- GI50 (OVCAR-8): 46.9 µM (inactive)
- GI50 (HL-60): 31 µM (inactive)
- GI50 (IGROV-1): 62.8 µM (inactive)
- GI50 (NCI-H522): 31 µM (inactive)
- GI50 (HCC 2998): 21.4 µM (inactive)
- GI50 (EKVX): 40.3 µM (inactive)
- GI50 (TK-10): 48.4 µM (inactive)
- GI50 (SF-539): 37.2 µM (inactive)
- GI50 (CAKI-1): 37.8 µM (inactive)
- GI50 (UACC-257): 27 µM (inactive)
- GI50 (PC-3): 40.6 µM (inactive)
- GI50 (MDA-N): 29.8 µM (inactive)
- GI50 (RXF 393): 29.5 µM (inactive)
- GI50 (T47D): 49 µM (inactive)
- GI50 (A549): 42.8 µM (inactive)
- GI50 (NCI-H460): 20 µM (inactive)
- GI50 (HCT-116): 35.5 µM (inactive)
- GI50 (HOP-62): > 100 µM (inactive)
- GI50 (Hs-578T): 45.4 µM (inactive)
- GI50 (M14): 51.6 µM (inactive)
- GI50 (OVCAR-5): > 100 µM (inactive)
- GI50 (MOLT-4): 20 µM (inactive)
- GI50 (Malme-3M): 44.3 µM (inactive)
- GI50 (K562): 35.4 µM (inactive)
- GI50 (HCT-15): 30.8 µM
- GI50 (UACC-62): 22.4 µM (inactive)
- GI50 (ACHN): 36.1 µM (inactive)
- GI50 (SNB-75): 25.1 µM (inactive)
- GI50 (BT-549): 24.7 µM (inactive)
- GI50 (SF-268): 63.4 µM (inactive)
- GI50 (MCF7): 30.1 µM (inactive)
- GI50 (SK-MEL-2): 35.4 µM (inactive)
- GI50 (SK-MEL-5): 19.4 µM (inactive)
- GI50 (NCI-H23): 45.3 µM (inactive)
- GI50 (SF-295): 40.6 µM (inactive)
- GI50 (RPMI-8226): 30 µM (inactive)
- GI50 (HOP-92): 40 µM (inactive)
- GI50 (MDA-MB-435): 27.5 µM (inactive)
- GI50 (SK-MEL-28): 20.5 µM (inactive)

Structure (SMILES): O=C1c2ccccc2C2(c3ccc(Cl)cc3)N[C@@H]3CCCC[C@@H]3N12 (stereo not given in full)
- GI50 (SK-OV-3): > 100 µM (inactive)
- GI50 (U-251): > 100 µM (inactive)
- GI50 (SNB-19): > 100 µM (inactive)
- GI50 (COLO 205): > 100 µM (inactive)
- GI50 (SR): > 100 µM (inactive)
- GI50 (LOX IMVI): > 100 µM (inactive)
- GI50 (DU-145): > 100 µM (inactive)
- GI50 (OVCAR-3): > 100 µM (inactive)
- GI50 (SW-620): > 100 µM (inactive)
- GI50 (NCI-H226): > 100 µM (inactive)
- GI50 (OVCAR-4): > 100 µM (inactive)
- GI50 (A498): > 100 µM (inactive)
- GI50 (SN12C): > 100 µM (inactive)
- GI50 (UO-31): > 100 µM (inactive)
- GI50 (MDA-MB-231): > 100 µM (inactive)
- GI50 (KM12): > 100 µM (inactive)
- GI50 (786-0): > 100 µM (inactive)
- GI50 (OVCAR-8): > 100 µM (inactive)
- GI50 (HL-60): 50.1 µM (inactive)
- GI50 (IGROV-1): > 100 µM (inactive)
- GI50 (HCC 2998): > 100 µM (inactive)
- GI50 (EKVX): > 100 µM (inactive)
- GI50 (TK-10): > 100 µM (inactive)
- GI50 (SF-539): > 100 µM (inactive)
- GI50 (CAKI-1): > 100 µM (inactive)
- GI50 (UACC-257): > 100 µM (inactive)
- GI50 (PC-3): > 100 µM (inactive)
- GI50 (CCRF-CEM): > 100 µM (inactive)
- GI50 (MDA-N): > 100 µM (inactive)
- GI50 (RXF 393): > 100 µM (inactive)
- GI50 (T47D): > 100 µM (inactive)
- GI50 (A549): > 100 µM (inactive)
- GI50 (NCI-H460): > 100 µM (inactive)
- GI50 (HCT-116): > 100 µM (inactive)
- GI50 (HOP-62): > 100 µM (inactive)
- GI50 (Hs-578T): > 100 µM (inactive)
- GI50 (M14): > 100 µM (inactive)
- GI50 (OVCAR-5): > 100 µM (inactive)
- GI50 (MOLT-4): > 100 µM (inactive)
- GI50 (K562): > 100 µM (inactive)
- GI50 (HCT-15): > 100 µM
- GI50 (UACC-62): > 100 µM (inactive)
- GI50 (ACHN): > 100 µM (inactive)
- GI50 (SNB-75): > 100 µM (inactive)
- GI50 (BT-549): > 100 µM (inactive)
- GI50 (SF-268): > 100 µM (inactive)
- GI50 (MCF7): > 100 µM (inactive)
- GI50 (SK-MEL-2): > 100 µM (inactive)
- GI50 (SK-MEL-5): > 100 µM (inactive)
- GI50 (NCI-H23): > 100 µM (inactive)
- GI50 (SF-295): > 100 µM (inactive)
- GI50 (RPMI-8226): > 100 µM (inactive)
- GI50 (HOP-92): > 100 µM (inactive)
- GI50 (MDA-MB-435): > 100 µM (inactive)
- GI50 (SK-MEL-28): > 100 µM (inactive)

Structure (SMILES): Cn1ncc2c(Cl)ncnc21
- GI50 (SK-OV-3): > 100 µM (inactive)
- GI50 (NCI/ADR-RES): > 100 µM (inactive)
- GI50 (HT-29): > 100 µM (inactive)
- GI50 (U-251): > 100 µM (inactive)
- GI50 (SNB-19): > 100 µM (inactive)
- GI50 (COLO 205): > 100 µM (inactive)
- GI50 (SR): > 100 µM (inactive)
- GI50 (LOX IMVI): > 100 µM (inactive)
- GI50 (DU-145): > 100 µM (inactive)
- GI50 (OVCAR-3): > 100 µM (inactive)
- GI50 (SW-620): > 100 µM (inactive)
- GI50 (NCI-H226): > 100 µM (inactive)
- GI50 (OVCAR-4): > 100 µM (inactive)
- GI50 (A498): > 100 µM (inactive)
- GI50 (SN12C): > 100 µM (inactive)
- GI50 (UO-31): > 100 µM (inactive)
- GI50 (KM12): > 100 µM (inactive)
- GI50 (786-0): > 100 µM (inactive)
- GI50 (OVCAR-8): > 100 µM (inactive)
- GI50 (HL-60): > 100 µM (inactive)
- GI50 (IGROV-1): > 100 µM (inactive)
- GI50 (NCI-H522): > 100 µM (inactive)
- GI50 (HCC 2998): > 100 µM (inactive)
- GI50 (EKVX): > 100 µM (inactive)
- GI50 (TK-10): > 100 µM (inactive)
- GI50 (SF-539): > 100 µM (inactive)
- GI50 (CAKI-1): > 100 µM (inactive)
- GI50 (UACC-257): > 100 µM (inactive)
- GI50 (PC-3): > 100 µM (inactive)
- GI50 (MDA-N): > 100 µM (inactive)
- GI50 (RXF 393): > 100 µM (inactive)
- GI50 (T47D): > 100 µM (inactive)
- GI50 (A549): > 100 µM (inactive)
- GI50 (NCI-H460): > 100 µM (inactive)
- GI50 (HCT-116): > 100 µM (inactive)
- GI50 (HOP-62): > 100 µM (inactive)
- GI50 (Hs-578T): > 100 µM (inactive)
- GI50 (M14): > 100 µM (inactive)
- GI50 (OVCAR-5): > 100 µM (inactive)
- GI50 (MOLT-4): > 100 µM (inactive)
- GI50 (K562): > 100 µM (inactive)
- GI50 (HCT-15): > 100 µM
- GI50 (UACC-62): > 100 µM (inactive)
- GI50 (ACHN): > 100 µM (inactive)
- GI50 (SNB-75): > 100 µM (inactive)
- GI50 (BT-549): > 100 µM (inactive)
- GI50 (SF-268): > 100 µM (inactive)
- GI50 (MCF7): > 100 µM (inactive)
- GI50 (SK-MEL-2): > 100 µM (inactive)
- GI50 (SK-MEL-5): > 100 µM (inactive)
- GI50 (NCI-H23): > 100 µM (inactive)
- GI50 (SF-295): > 100 µM (inactive)
- GI50 (RPMI-8226): > 100 µM (inactive)
- GI50 (HOP-92): > 100 µM (inactive)
- GI50 (MDA-MB-435): > 100 µM (inactive)
- GI50 (SK-MEL-28): > 100 µM (inactive)
